In paper PMC6261043, “Characterization of a heat responsive UDP: Flavonoid glucosyltransferase gene in tea plant (Camellia sinensis)” (PLoS ONE, 2018) one finds Km data, which are given here for seven compounds.

As usually defined, the Km is the substrate concentration at which the rate is half of its maximum.

This experiment concerns the target T1, UGT73A17 (rUGT73A17, CsUGT73A17) (Camellia sinensis, UniProt W6JMN6, L296I/A466V, form not given).
T1 construct: gene CsUGTC1; full-length ORF (1422 bp, 473 residues) from tea EST library, N-terminal MBP fusion (pMAL-c2X), E. coli Novablue, purified
Put plainly: HPLC product quantification, Lineweaver-Burk. In kind it is biochemical. The conditions noted are these: UDP-glucose as sugar donor, 100 mM Tris-HCl pH 7.0, 30°C.

Structures are written as SMILES.

T1 sequence (W6JMN6 entry or part of it L296I/A466V, form open): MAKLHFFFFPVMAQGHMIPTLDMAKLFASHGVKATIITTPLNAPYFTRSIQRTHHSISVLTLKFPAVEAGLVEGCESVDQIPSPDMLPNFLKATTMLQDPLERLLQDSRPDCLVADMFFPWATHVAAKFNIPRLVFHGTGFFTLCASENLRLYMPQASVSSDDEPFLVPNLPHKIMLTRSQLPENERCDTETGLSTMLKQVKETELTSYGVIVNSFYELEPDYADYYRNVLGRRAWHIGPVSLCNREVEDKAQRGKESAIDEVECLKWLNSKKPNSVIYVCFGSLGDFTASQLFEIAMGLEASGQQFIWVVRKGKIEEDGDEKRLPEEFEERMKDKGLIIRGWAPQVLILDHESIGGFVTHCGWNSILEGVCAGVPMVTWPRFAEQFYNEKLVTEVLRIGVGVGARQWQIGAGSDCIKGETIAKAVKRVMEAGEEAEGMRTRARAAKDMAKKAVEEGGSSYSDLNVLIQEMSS

Consider `O=c1cc(-c2ccc(O)c(O)c2)oc2cc(O)cc(O)c12` [luteolin], for which the Km worked out at 3.2 µM.
With `O=C1C[C@@H](c2ccc(O)cc2)Oc2cc(O)cc(O)c21` [naringenin], the Km turned out to be 9.5 ± 5 µM.
With `O=c1cc(-c2ccc(O)cc2)oc2cc(O)cc(O)c12` [apigenin], the Km is 5.5 ± 1.5 µM.
As for `O=c1c(O)c(-c2ccc(O)cc2)oc2cc(O)cc(O)c12` [kaempferol], the Km came out at 5.2 µM.
Consider `O=C(O[C@H]1Cc2c(O)cc(O)cc2O[C@H]1c1ccc(O)c(O)c1)c1cc(O)c(O)c(O)c1` [epicatechin gallate], for which the Km was determined as 77 ± 5.9 µM.
For `O=c1cc(-c2cc(O)c(O)c(O)c2)oc2cc(O)cc(O)c12` [tricetin], the Km came to 4.6 ± 0.71 µM.
Then `O=c1c(O)c(-c2cc(O)c(O)c(O)c2)oc2cc(O)cc(O)c12` [myricetin], with 8.8 ± 4.3 µM.
